According to patent US20250017964A1, “ENGINEERING OR INDUCING PDGF AND/OR PDGFR SIGNALING TO ENHANCE NK CELL THERAPY” (City of Hope, priority 2021, published 2025):

Tested on: NK cells
Assay: Annexin V and Ki67 staining of NK cells in vitro
Format: cell-based, human
Conditions: PDGF-D 50 ng/ml 48 h without IL-15
Procedure: FIGS. 4A-4J. PDGFRβ promotes IL-15-mediated NK cell survival in vitro and in vivo. (A) 5×10^5 sorted PDGFRβ^+ (Pos) and PDGFRβ^− (Neg) NK cells were cultured in vitro for 7 days in the presence of IL-15 (10 ng/ml). The cells were counted via trypan blue exclusion assay on days 3, 5, and 7 (n=5). (B and C) On day 7, Ki67 levels in PDGFRβ^+ and PDGFRβ^− NK cells were determined by flow cytometry (n=5). (D and E) Annexin V levels in PDGFRβ^+ and PDGFRβ^− NK cells on day 7 were determined by flow cytometry (n=5). (H-J) 1×10^7 sorted PDGFRβ^+ or PDGFRβ^− IL-15-transduced NK cells were injected into NOD/SCID/IL-2rg (NSG) mice. Blood samples were collected for analysis at the indicated time after adoptive transfer. Data shown are representative dot plots on day 9 after adoptive transfer (H), percentages (I), and absolute numbers (J) of PDGFRβ^+ and PDGFRβ^− NK cells on days 3, 6, and 9 after adoptive transfer (n=5). Data represent three independent experiments. […]
FIGS. 6A-6M. […] Cells were counted on days 3, 5, and 7 (n=3). […] Cells were counted on days 3, 5, and 7 (n=3). […] The cells were counted by trypan exclusion assay on days 3, 5, and 7 (n=3). […] Cells were counted by trypan exclusion assay on days 3, 5, and 7 (n=3). […] Cells were counted by trypan exclusion assay on days 3, 5, and 7 (n=3). […] Cell apoptosis and proliferation were analyzed by annexin V staining (J) and Ki-67 staining (K), respectively. […]

## PDGF-D: recombinant human PDGF-DD (1159-SB-025), R&D Systems
IL-15-pretreated sorted cells
  apoptosis of PDGFRβ^+ NK cells (annexin V): inhibited apoptosis
  NK cell proliferation (Ki67): did not affect NK cell proliferation
